Measurements taken from PubChem BioAssay (NCI).
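Each compound was tested at five concentrations against cells in 96-well plates for 48 hours. Definition used: TGI = concentration required for complete inhibition of growth.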

Experiments:
Assay in all cases: growth of human tumour cells (NCI), 48 h
RPMI-8226 leukemia = system: RPMI-8226 leukemia
SN12C renal = system: SN12C renal
RXF 393 renal = system: RXF 393 renal
NCI-H460 lung = system: NCI-H460 lung
DU-145 prostate = system: DU-145 prostate
786-0 renal = system: 786-0 renal
NCI-H23 lung = system: NCI-H23 lung
OVCAR-4 ovarian = system: OVCAR-4 ovarian
HT29 colon = system: HT29 colon
OVCAR-5 ovarian = system: OVCAR-5 ovarian
HOP-62 NSCLC = system: HOP-62 NSCLC
SK-MEL-2 melanoma = system: SK-MEL-2 melanoma

CC(NC(=O)/C(=C/c1ccccc1O)NC(=O)c1ccccc1)C(=O)O (stereo not drawn) was tested. Which TGI (RPMI-8226 leukemia) did it give?
The TGI was greater than 100 µM.

What about the TGI (SN12C renal) of the same compound?
The TGI was 48.1 µM.

And the TGI (RXF 393 renal)?
The TGI was 57.6 µM.

What about the TGI (NCI-H460 lung) of the same compound?
The TGI was 64.9 µM.

What about the TGI (DU-145 prostate) of the same compound?
Its TGI is greater than 100 µM.

What about the TGI (786-0 renal) of the same compound?
The TGI was 68.1 µM.

And the TGI (NCI-H23 lung)?
Its TGI is greater than 100 µM.

What about the TGI (OVCAR-4 ovarian) of the same compound?
The TGI was greater than 100 µM.

And the TGI (HT29 colon)?
The TGI was greater than 100 µM.

And the TGI (OVCAR-5 ovarian)?
The TGI was greater than 100 µM.

For COc1cccc(NC(=O)CSc2nnc(-c3ccc(N=Cc4ccc(Cl)cc4)cc3)o2)c1, which TGI (RPMI-8226 leukemia) is on record?
Its TGI is 65.1 µM.

And the TGI (SN12C renal)?
Its TGI is 43 µM.

What about the TGI (RXF 393 renal) of the same compound?
The TGI was 34 µM.

And the TGI (NCI-H460 lung)?
The TGI was 60.6 µM.

And the TGI (786-0 renal)?
The TGI was 57.5 µM.

What about the TGI (NCI-H23 lung) of the same compound?
Its TGI is 41.1 µM.

What about the TGI (OVCAR-4 ovarian) of the same compound?
Its TGI is greater than 100 µM.

What about the TGI (HT29 colon) of the same compound?
The TGI was 29.8 µM.

What about the TGI (HOP-62 NSCLC) of the same compound?
Its TGI is greater than 100 µM.

And the TGI (SK-MEL-2 melanoma)?
The TGI was 39.8 µM.

For NC(Cc1cc(I)c(O)c(I)c1)C(=O)O (stereo not drawn), which TGI (RPMI-8226 leukemia) is on record?
Its TGI is greater than 500 µM.

And the TGI (SN12C renal)?
Its TGI is greater than 500 µM.

What about the TGI (RXF 393 renal) of the same compound?
Its TGI is 449 µM.

And the TGI (NCI-H460 lung)?
The TGI was greater than 349 µM.

What about the TGI (NCI-H23 lung) of the same compound?
Its TGI is greater than 356 µM.

What about the TGI (OVCAR-4 ovarian) of the same compound?
The TGI was 332 µM.

And the TGI (HT29 colon)?
The TGI was greater than 393 µM.

What about the TGI (OVCAR-5 ovarian) of the same compound?
The TGI was greater than 500 µM.

And the TGI (HOP-62 NSCLC)?
The TGI was greater than 500 µM.

What about the TGI (SK-MEL-2 melanoma) of the same compound?
Its TGI is greater than 500 µM.

For CCCCc1c2c(nc3c1CCc1cc4c(nc1-3)-c1nc3c(c(CCCC)c1CC4)CCC/C3=C\c1ccccc1)/C(=C/c1ccccc1)CCC2, which TGI (RPMI-8226 leukemia) is on record?
Its TGI is greater than 100 µM.

And the TGI (SN12C renal)?
Its TGI is greater than 100 µM.

What about the TGI (RXF 393 renal) of the same compound?
The TGI was 65.4 µM.

And the TGI (NCI-H460 lung)?
Its TGI is greater than 100 µM.

And the TGI (786-0 renal)?
The TGI was greater than 100 µM.

And the TGI (NCI-H23 lung)?
Its TGI is greater than 100 µM.

What about the TGI (HT29 colon) of the same compound?
Its TGI is greater than 100 µM.

What about the TGI (OVCAR-5 ovarian) of the same compound?
Its TGI is greater than 100 µM.

And the TGI (HOP-62 NSCLC)?
Its TGI is greater than 100 µM.

And the TGI (SK-MEL-2 melanoma)?
The TGI was greater than 100 µM.

What does the source list for COC(=O)c1sc(=S)sc1SCc1ccccc1CSc1sc(=S)sc1C(=O)OC?
TGI (SN12C renal): > 100 µM; TGI (RXF 393 renal): > 100 µM; TGI (NCI-H460 lung): > 100 µM; TGI (DU-145 prostate): > 100 µM; TGI (786-0 renal): > 100 µM; TGI (NCI-H23 lung): > 100 µM; TGI (OVCAR-4 ovarian): > 100 µM; TGI (HT29 colon): > 100 µM; TGI (OVCAR-5 ovarian): > 100 µM; TGI (HOP-62 NSCLC): > 100 µM; TGI (SK-MEL-2 melanoma): > 100 µM

How did the TGI (RPMI-8226 leukemia) turn out when CC(C)CCC[C@@H](C)[C@H]1CC[C@H]2[C@@H]3CC=C4C[C@@H](OC(=O)c5cccc6c(=O)c7ccccc7[nH]c56)CC[C@]4(C)[C@H]3CC[C@]12C was run?
Its TGI is greater than 75 µM.

And the TGI (SN12C renal)?
Its TGI is greater than 75 µM.

And the TGI (RXF 393 renal)?
Its TGI is greater than 75 µM.

And the TGI (786-0 renal)?
Its TGI is greater than 75 µM.

And the TGI (NCI-H23 lung)?
Its TGI is greater than 75 µM.

What about the TGI (OVCAR-4 ovarian) of the same compound?
The TGI was greater than 75 µM.

What about the TGI (HT29 colon) of the same compound?
Its TGI is greater than 75 µM.

And the TGI (OVCAR-5 ovarian)?
Its TGI is greater than 75 µM.

What about the TGI (HOP-62 NSCLC) of the same compound?
Its TGI is greater than 75 µM.

And the TGI (SK-MEL-2 melanoma)?
Its TGI is greater than 75 µM.

COc1ccc(C(O)c2ccc3c(c2)OCO3)cc1 (stereo not drawn) was tested. Which TGI (SN12C renal) did it give?
The TGI was greater than 100 µM.

And the TGI (RXF 393 renal)?
The TGI was greater than 100 µM.

And the TGI (NCI-H460 lung)?
Its TGI is greater than 100 µM.

What about the TGI (DU-145 prostate) of the same compound?
The TGI was greater than 100 µM.

What about the TGI (786-0 renal) of the same compound?
The TGI was greater than 100 µM.

And the TGI (NCI-H23 lung)?
Its TGI is greater than 100 µM.

And the TGI (OVCAR-4 ovarian)?
The TGI was greater than 100 µM.

What about the TGI (HT29 colon) of the same compound?
The TGI was greater than 100 µM.

What about the TGI (OVCAR-5 ovarian) of the same compound?
Its TGI is greater than 100 µM.

What about the TGI (HOP-62 NSCLC) of the same compound?
Its TGI is greater than 100 µM.

With Cc1cc(C)c(S(=O)(=O)N(CCCCN)OCCCN)c(C)c1 as the compound, how does the TGI (RPMI-8226 leukemia) read?
The TGI was 26 µM.

And the TGI (SN12C renal)?
Its TGI is 34.4 µM.

What about the TGI (RXF 393 renal) of the same compound?
The TGI was 31.6 µM.

And the TGI (NCI-H460 lung)?
Its TGI is 33.4 µM.

What about the TGI (DU-145 prostate) of the same compound?
Its TGI is 29.4 µM.

What about the TGI (NCI-H23 lung) of the same compound?
The TGI was 43.2 µM.

And the TGI (OVCAR-4 ovarian)?
The TGI was 32.3 µM.

What about the TGI (HT29 colon) of the same compound?
Its TGI is 27.8 µM.

And the TGI (OVCAR-5 ovarian)?
Its TGI is 35.6 µM.

What about the TGI (SK-MEL-2 melanoma) of the same compound?
Its TGI is 30.9 µM.

CN=C(Nn1cnnc1)OC was tested. Which TGI (RPMI-8226 leukemia) did it give?
Its TGI is greater than 100 µM.

And the TGI (RXF 393 renal)?
Its TGI is greater than 100 µM.

And the TGI (NCI-H460 lung)?
The TGI was greater than 100 µM.

What about the TGI (DU-145 prostate) of the same compound?
Its TGI is greater than 100 µM.

And the TGI (786-0 renal)?
The TGI was greater than 100 µM.

And the TGI (NCI-H23 lung)?
Its TGI is greater than 100 µM.

And the TGI (OVCAR-4 ovarian)?
The TGI was greater than 100 µM.

What about the TGI (HT29 colon) of the same compound?
Its TGI is greater than 100 µM.

What about the TGI (OVCAR-5 ovarian) of the same compound?
The TGI was greater than 100 µM.

What about the TGI (HOP-62 NSCLC) of the same compound?
Its TGI is greater than 100 µM.

And the TGI (SK-MEL-2 melanoma)?
Its TGI is greater than 100 µM.

How did the TGI (RPMI-8226 leukemia) turn out when CC(=O)NC1C(CO)O[C@@H]2OC(C)(C)O[C@H]12 (stereo partly drawn) was run?
The TGI was greater than 100 µM.

What about the TGI (SN12C renal) of the same compound?
Its TGI is greater than 100 µM.

What about the TGI (NCI-H460 lung) of the same compound?
The TGI was greater than 100 µM.

What about the TGI (786-0 renal) of the same compound?
The TGI was greater than 100 µM.

And the TGI (NCI-H23 lung)?
Its TGI is greater than 100 µM.

What about the TGI (OVCAR-4 ovarian) of the same compound?
Its TGI is greater than 100 µM.

And the TGI (HT29 colon)?
The TGI was greater than 100 µM.

What about the TGI (OVCAR-5 ovarian) of the same compound?
The TGI was greater than 100 µM.

And the TGI (HOP-62 NSCLC)?
The TGI was greater than 100 µM.

What about the TGI (SK-MEL-2 melanoma) of the same compound?
The TGI was greater than 100 µM.

Which TGI (RPMI-8226 leukemia) does the source give for S=C(N/N=C\C=N/NC(=S)N1CCCCCC1)N1CCCCCC1 here?
Its TGI is greater than 100 µM.

And the TGI (SN12C renal)?
Its TGI is greater than 100 µM.

And the TGI (RXF 393 renal)?
The TGI was 90.9 µM.

What about the TGI (NCI-H460 lung) of the same compound?
Its TGI is greater than 100 µM.

What about the TGI (DU-145 prostate) of the same compound?
Its TGI is greater than 86.2 µM.

And the TGI (786-0 renal)?
The TGI was greater than 100 µM.

And the TGI (NCI-H23 lung)?
The TGI was greater than 100 µM.

What about the TGI (HT29 colon) of the same compound?
The TGI was greater than 100 µM.

And the TGI (OVCAR-5 ovarian)?
Its TGI is greater than 100 µM.

What about the TGI (HOP-62 NSCLC) of the same compound?
The TGI was greater than 60.9 µM.

What about the TGI (SK-MEL-2 melanoma) of the same compound?
Its TGI is greater than 100 µM.
